Measurements published in patent publication US7344730B1, “Soil granulates with controlled active ingredient release (cr soil granulates)” (BASF SE, priority 1998, dated 2008).
Read-outs that look alike come from different tables or passages of the source.

How the values were obtained:
[1] = Granule elution apparatus: release of active ingredient from CR granules into about 4000 ml water in 24 h; type: physicochemical; settings: for active ingredient detected in the collected liquid: Example 3 granules (PVA+PVP coating), 30 g of granules, 3980 g of water in 24 hours; for Release rate in 24 h at 40° C., 4000 ml: coating percentage 4%
Protocol: The plant serves to determine the delayed release of active ingredients or salts from controlled release (CR) formulations. A frit on which the granules to be tested are placed is located in a cylindrical vessel at the lower edge. Underneath the frit there is an S-shaped drain which causes liquid to drain from the cylinder only when it is 80% full. Water (if appropriate together with wetter) is pumped through the CR formulations in a cylindrical feed container (approx. volume 100 ml) by means of a hose pump in such a way that the feed material is surrounded completely by water. The percolating water is collected in receiving vessels. An automatic switch causes the receiving vessels to be changed in order to determine the release of active ingredients over time. […] Unless elution temperatures are specified, a bath temperature of 30° C. was set.
The elution plant operates 24 hours a day in conjunction with the program control. One elution takes 24 hours, and during this time approx. 4000 ml of fluid are pumped through the feed material and collected in receiving vessels. The active ingredient content in the eluate is determined by means of HPLC or GC. Whether release is uniform can be checked with reference to the feed material. The cumulative value provides a measure for assessing granule permeability.
The release rate of the active ingredients was determined in the above-described elution apparatus. To this end, 30 g of the carrier granules were weighed into a trapped container equipped with a frit. In 24 hours, an amount of 3980 g of water was pumped through the container and collected. 124 mg of fenpropimorph and 19 mg of epoxiconazole were detected in the collected liquid.

Erysiphe-graminis = assay: Field experiments on spring wheat Star: disease level Erysiphe graminis; type: in vivo; settings: soil application in CR granules combined with strobilurin, Table 12 series
Description: Due to the rapid release of active ingredient, the long-term action of this sample was insufficient, so that only a minor effect was discernible in comparison with the untreated sample.
The carriers employed were urea and Rasenfloranid granules.

[2] = type: in vivo, winter wheat; settings: for epoxiconazole detected per kg of biomass: winter wheat, in vivo
Protocol: This product was applied together with cereal seed (winter wheat). On average, approx. 3 fungicidal active ingredient pellets were deposited subterraneously per seed kernel. Epoxiconazole was detected in the growing cereal plants two and six months after application. Two months after sowing, 0.038 mg were detected per kg of biomass, and six months after application 0.022 mg were still detected per kg of biomass.

CC(Cc1ccc(C(C)(C)C)cc1)CN1C[C@@H](C)O[C@@H](C)C1 (mixture of isomers) [Comp. 1, (±)-cis-4-[3-(4-tert-butylphenyl)-2-methylpropyl]-2,6-dimethyl-morpoline]
active ingredient detected in the collected liquid [1]: 124 mg

CC(=O)Oc1ccccc1C(=O)O [Comp. 7, acetylsalicylic acid]
activity-enhancing effect in combination (words) (Erysiphe-graminis; listed as Compound 7): same activity-enhancing effects as Bion®

Fc1ccc([C@]2(Cn3cncn3)O[C@H]2c2ccccc2Cl)cc1 (racemic) [Comp. 6, (2RS,3SR)-1-[3-(2-chlorophenyl)-2,3-epoxy-2-(4-fluorophenyl)-propyl]-1H-1,2,4-triazole]
active ingredient detected in the collected liquid [1]: 19 mg
Release rate in 24 h at 40° C., 4000 ml ([1]; filler (starch C-Pur) 0%): 2.70%
Release rate in 24 h at 40° C., 4000 ml ([1]; filler (starch C-Pur) 10%): 3.30%
Release rate in 24 h at 40° C., 4000 ml ([1]; filler (starch C-Pur) 20%): 7.15%
controlled release of the active ingredient in the soil, duration ([2]; PVA+PVP coating, Example 3): at least 6 months
epoxiconazole detected per kg of biomass ([2]; 2 months): 0.038 mg per kg of biomass
epoxiconazole detected per kg of biomass ([2]; 6 months): 0.022 mg per kg of biomass

CC(=O)Oc1ccccc1C(=O)O [acetylsalicylic acid]
activity-enhancing effect in combination (words) (Erysiphe-graminis): activity-enhancing effects
